Literature values as cited in patent US20200289431A1 (priority 2019, published 2020).

Experiments:
[1] = in vivo
cannabinoid CB2 receptor = cannabinoid CB2 receptor (Homo sapiens, UniProt P34972)
Chain of cannabinoid CB2 receptor (P34972 whole entry): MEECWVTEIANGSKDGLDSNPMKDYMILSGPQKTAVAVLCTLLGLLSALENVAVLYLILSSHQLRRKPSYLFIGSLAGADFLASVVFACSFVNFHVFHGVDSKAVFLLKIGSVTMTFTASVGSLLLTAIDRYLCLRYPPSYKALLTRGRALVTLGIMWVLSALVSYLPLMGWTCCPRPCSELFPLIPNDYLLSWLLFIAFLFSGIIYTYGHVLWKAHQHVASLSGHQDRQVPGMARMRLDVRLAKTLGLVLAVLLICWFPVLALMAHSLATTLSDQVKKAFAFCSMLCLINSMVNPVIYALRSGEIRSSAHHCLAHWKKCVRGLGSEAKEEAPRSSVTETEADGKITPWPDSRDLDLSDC

In the case of `C=C(C)[C@@H]1CCC(C)=C[C@H]1c1c(O)cc(CCCCC)cc1O` [Cannabidiol], the elimination half-life [1] is given as 18 to 32 h and the “affinity for the cannabinoid CB2 receptor” value (cannabinoid CB2 receptor) is given as “very low affinity”.
